Experiments:
AoRib2 = molecular target: T1, AoRib2 (Aspergillus oryzae, UniProt Q2UFA9); experiment: deaminase assay, fluorescence after diacetyl modification; type: biochemical; settings: 310 K, 30 min; DARIPP made enzymatically in situ from GTP
T1 construct: gene rib2; full length, 222 residues; monomer
T1 sequence (Q2UFA9 1-222): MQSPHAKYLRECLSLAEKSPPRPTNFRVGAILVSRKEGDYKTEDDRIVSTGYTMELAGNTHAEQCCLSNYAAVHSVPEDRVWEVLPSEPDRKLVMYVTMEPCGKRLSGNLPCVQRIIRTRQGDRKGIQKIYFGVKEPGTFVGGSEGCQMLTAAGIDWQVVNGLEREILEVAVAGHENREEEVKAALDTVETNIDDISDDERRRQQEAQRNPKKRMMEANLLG

AoRib2_188 = molecular target: T2, AoRib2_188 (Aspergillus oryzae, UniProt Q2UFA9); experiment: X-ray crystal structure, soaked, […] A; type: binding; settings: crystals pH 6.5 (MES), soaked 20 min in 50-100 mM DARIPP; active site with Zn2+
T2 construct: gene rib2; deaminase domain, residues 1-188 of 222, C-terminal segment deleted; Zn ligands His61, Cys102, Cys112, general base Glu63
T2 sequence (Q2UFA9 1-188): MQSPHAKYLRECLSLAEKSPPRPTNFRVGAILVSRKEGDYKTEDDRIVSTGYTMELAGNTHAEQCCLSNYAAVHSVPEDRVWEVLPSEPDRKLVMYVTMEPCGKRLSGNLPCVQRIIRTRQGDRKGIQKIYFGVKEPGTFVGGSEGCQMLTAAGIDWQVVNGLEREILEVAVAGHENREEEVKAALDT

Nc1nc(NC[C@H](O)[C@H](O)[C@H](O)COP(=O)(O)O)c(N)c(=O)[nH]1 [DARIPP, 2,5-diamino-6-ribitylamino-4(3H)-pyrimidinone 5′-phosphate]
deaminase assay, fluorescence after diacetyl modification (AoRib2): the recombinant protein is able to catalyze the conversion of DARIPP to ARIPP | X-ray crystal structure, soaked, 1.58 A (AoRib2_188): DARIPP could be built nicely into strong electron density and is firmly embedded in the active site
